According to PubChem BioAssay AID330 (DTP/NCI, 2004):
Where “and” joins values, the source holds several entries; their conditions need not be identical. Identical values can stand only once. Toxic doses and inconclusive results are not listed. The calls were made as follows: active = survival T/C of 150% or more; inactive = T/C below 125% in these data.

Tested on: P388 leukemia ip, CD2F1 mice, survival T/C
Assay: NCI In Vivo Anticancer Drug Screen. Data for tumor model P388 Leukemia (intraperitoneal) in CD2F1 (CDF1) mice
Conditions: endpoint: median survival time, higher = longer survival
Method in brief: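 Mice carrying the transplanted tumor received test compound or vehicle. Survival was recorded in each group, and the value is the treated-group measurement divided by that of the vehicle-treated control group.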

[1] = dose: 50.0 mg/kg/injection, schedule: Q01DX009 (ip), vehicle: saline with Tween-80
[2] = dose: 100.0 mg/kg/injection, schedule: Q01DX009 (ip), vehicle: saline with Tween-80
[3] = dose: 200.0 mg/kg/injection, schedule: Q01DX009 (ip), vehicle: saline with Tween-80
[4] = dose: 100.0 mg/kg/injection, schedule: Q04DX003 (ip), vehicle: Klucel (hydroxypropylcellulose) (HPC)
[5] = dose: 200.0 mg/kg/injection, schedule: Q04DX003 (ip), vehicle: Klucel (hydroxypropylcellulose) (HPC)
[6] = dose: 50.0 mg/kg/injection, schedule: Q01DX005 (ip), vehicle: saline with Tween-80
[7] = dose: 100.0 mg/kg/injection, schedule: Q01DX005 (ip), vehicle: saline with Tween-80
[8] = dose: 50.0 mg/kg/injection, schedule: Q01DX009 (ip), vehicle: Klucel (hydroxypropylcellulose) (HPC)
[9] = dose: 100.0 mg/kg/injection, schedule: Q01DX009 (ip), vehicle: Klucel (hydroxypropylcellulose) (HPC)
[10] = dose: 200.0 mg/kg/injection, schedule: Q01DX009 (ip), vehicle: Klucel (hydroxypropylcellulose) (HPC)
[11] = dose: 100.0 mg/kg/injection, schedule: Q04DX003 (ip), vehicle: saline with Tween-80
[12] = dose: 200.0 mg/kg/injection, schedule: Q04DX003 (ip), vehicle: saline with Tween-80

Measured: T/C

COC1=C(OC)C(=O)C(SCCCCCCC2CCCCC2)=CC1=O
inactive: dose: 16.0 mg/kg/injection, schedule: Q01DX009 (ip), vehicle: Klucel (hydroxypropylcellulose) (HPC) 96 % of control | dose: 32.0 mg/kg/injection, schedule: Q01DX009 (ip), vehicle: Klucel (hydroxypropylcellulose) (HPC) 92 % of control

O=C1c2nc[nH]c2C(=O)c2c1nc[nH]c2=O
inactive: dose: 3.75 mg/kg/injection, schedule: Q01DX005 (ip), vehicle: other 101 % of control | dose: 7.5 mg/kg/injection, schedule: Q01DX005 (ip), vehicle: other 100 % of control | dose: 15.0 mg/kg/injection, schedule: Q01DX005 (ip), vehicle: other 106 % of control | dose: 30.0 mg/kg/injection, schedule: Q01DX005 (ip), vehicle: other 102 % of control

CCC1COc2nc(=O)c(C=NCCCN(C)C)c(N)n21 (stereo not drawn)
inactive: dose: 60.0 mg/kg/injection, schedule: Q01DX005 (ip), vehicle: saline 100 % of control | dose: 120.0 mg/kg/injection, schedule: Q01DX005 (ip), vehicle: saline 105 % of control | dose: 240.0 mg/kg/injection, schedule: Q01DX005 (ip), vehicle: saline 99 % of control

C(=Nc1ccc2c(c1)Cc1ccccc1-2)c1ccc2ccccc2c1
inactive: dose: 400.0 mg/kg/injection, schedule: Q04DX002 (ip), vehicle: saline 90 % of control

O=[N+]([O-])c1ccc(N/N=C\c2c(Cl)[nH]c3ccccc23)c([N+](=O)[O-])c1
inactive: [1] 93 % of control | [2] 93 % of control | [3] 87 % of control

CS/C(=C1/C(=O)N(c2ccccc2)N=C1c1ccc(Cl)cc1)N1CC1
inactive: dose: 25.0 mg/kg/injection, schedule: Q04DX003 (ip), vehicle: Klucel (hydroxypropylcellulose) (HPC) 96 % of control | dose: 50.0 mg/kg/injection, schedule: Q04DX003 (ip), vehicle: Klucel (hydroxypropylcellulose) (HPC) 99 % of control | [4] 99 % of control | [5] 99 % of control | dose: 400.0 mg/kg/injection, schedule: Q04DX003 (ip), vehicle: Klucel (hydroxypropylcellulose) (HPC) 91 % of control

CC(=O)Nc1cc(C)cc(C(=O)O)c1C
inactive: [1] 97 % of control | [2] 100 % of control | [3] 98 % of control | dose: 400.0 mg/kg/injection, schedule: Q01DX009 (ip), vehicle: saline with Tween-80 98 % of control

CC1(C)OCC(CO)O1 (stereo not drawn)
inactive: dose: 50.0 mg/kg/injection, schedule: Q01DX009 (ip), vehicle: saline 106 % of control | dose: 100.0 mg/kg/injection, schedule: Q01DX009 (ip), vehicle: saline 114 % of control | dose: 200.0 mg/kg/injection, schedule: Q01DX009 (ip), vehicle: saline 111 % of control

O=C(O)Cc1nn[nH]n1
inactive: [4] 107 % of control | [5] 108 % of control

N#CCCn1nc(Sc2ccccc2)c(=O)[nH]c1=O
inactive: [6] 95 % of control | dose: 60.0 mg/kg/injection, schedule: Q01DX005 (ip), vehicle: saline with Tween-80 100 % of control | [7] 94 % of control | dose: 120.0 mg/kg/injection, schedule: Q01DX005 (ip), vehicle: saline with Tween-80 100 % of control | dose: 200.0 mg/kg/injection, schedule: Q01DX005 (ip), vehicle: saline with Tween-80 94 % of control | dose: 240.0 mg/kg/injection, schedule: Q01DX005 (ip), vehicle: saline with Tween-80 95 % of control

OCN(CO)c1nc(CCC(Br)(Br)Br)nc(N(CO)CO)n1
inactive: dose: 12.5 mg/kg/injection, schedule: Q01DX009 (ip), vehicle: distilled water + Tween-80 104 % of control | dose: 25.0 mg/kg/injection, schedule: Q01DX009 (ip), vehicle: distilled water + Tween-80 98 % of control | dose: 50.0 mg/kg/injection, schedule: Q01DX009 (ip), vehicle: distilled water + Tween-80 98 % of control | dose: 100.0 mg/kg/injection, schedule: Q01DX009 (ip), vehicle: distilled water + Tween-80 89 % of control | dose: 200.0 mg/kg/injection, schedule: Q01DX009 (ip), vehicle: distilled water + Tween-80 98 % of control

CCC12Nc3ccc([N+](=O)[O-])cc3C(CC)(C1=O)C(c1ccccc1)=C2c1ccccc1 (stereo not drawn)
inactive: [8] 113 % of control | [9] 110 % of control | [10] 112 % of control

COc1cc(/C=C/c2ccc(OC)c(O)c2)cc(OC)c1
inactive: dose: 6.25 mg/kg/injection, schedule: Q01DX005 (ip), vehicle: Klucel (hydroxypropylcellulose) (HPC) 108 % of control | dose: 12.5 mg/kg/injection, schedule: Q01DX005 (ip), vehicle: Klucel (hydroxypropylcellulose) (HPC) 103 % of control | dose: 25.0 mg/kg/injection, schedule: Q01DX005 (ip), vehicle: Klucel (hydroxypropylcellulose) (HPC) 99 % of control | dose: 50.0 mg/kg/injection, schedule: Q01DX005 (ip), vehicle: Klucel (hydroxypropylcellulose) (HPC) 119 % of control and 94 % of control | dose: 100.0 mg/kg/injection, schedule: Q01DX005 (ip), vehicle: Klucel (hydroxypropylcellulose) (HPC) 98 % of control | dose: 200.0 mg/kg/injection, schedule: Q01DX005 (ip), vehicle: Klucel (hydroxypropylcellulose) (HPC) 94 % of control

CCOC(=O)C(Cc1ccc(N(CCCl)CCCl)cc1)NC=O (stereo not drawn)
inactive: [2] 100 % of control | [12] 91 % of control
active: dose: 6.25 mg/kg/injection, schedule: Q04DX003 (ip), vehicle: saline with Tween-80 150 % of control | dose: 12.5 mg/kg/injection, schedule: Q04DX003 (ip), vehicle: saline with Tween-80 154 % of control | dose: 25.0 mg/kg/injection, schedule: Q01DX009 (ip), vehicle: saline with Tween-80 181 % of control | [1] 209 % of control | dose: 50.0 mg/kg/injection, schedule: Q04DX003 (ip), vehicle: saline with Tween-80 181 % of control | [11] 204 % of control and 216 % of control

CC(NS(=O)(=O)N1CCOC1=O)c1ccccc1 (stereo not drawn)
inactive: dose: 60.0 mg/kg/injection, schedule: Q01DX005 (ip), vehicle: Klucel (hydroxypropylcellulose) (HPC) 104 % of control | dose: 120.0 mg/kg/injection, schedule: Q01DX005 (ip), vehicle: Klucel (hydroxypropylcellulose) (HPC) 107 % of control | dose: 240.0 mg/kg/injection, schedule: Q01DX005 (ip), vehicle: Klucel (hydroxypropylcellulose) (HPC) 104 % of control

Cc1cc(NC(=O)SCCOC(=O)COc2ccc(Cl)cc2)ccc1Cl
inactive: [11] 100 % of control | [12] 95 % of control | dose: 400.0 mg/kg/injection, schedule: Q04DX003 (ip), vehicle: saline with Tween-80 90 % of control

N#Cc1c2ccccc2cc[n+]1Cc1ccc2c(c1)OCO2
inactive: dose: 3.12 mg/kg/injection, schedule: Q04DX002 (ip), vehicle: Klucel (hydroxypropylcellulose) (HPC) 105 % of control | dose: 6.25 mg/kg/injection, schedule: Q04DX002 (ip), vehicle: Klucel (hydroxypropylcellulose) (HPC) 104 % of control | dose: 12.5 mg/kg/injection, schedule: Q04DX002 (ip), vehicle: Klucel (hydroxypropylcellulose) (HPC) 100 % of control and 106 % of control

CCOc1ccccc1NC(=S)Nc1ccccc1C(F)(F)F
inactive: [8] 109 % of control | [9] 100 % of control | [10] 100 % of control

CC(C)c1ccc(/C=N\NC(=S)N/N=C\c2ccc(C(C)C)cc2)cc1
inactive: dose: 6.25 mg/kg/injection, schedule: Q01DX009 (ip), vehicle: Klucel (hydroxypropylcellulose) (HPC) 96 % of control | dose: 12.5 mg/kg/injection, schedule: Q01DX009 (ip), vehicle: Klucel (hydroxypropylcellulose) (HPC) 86 % of control

O=CNC(Cc1ccccc1)C(=O)O (stereo not drawn)
inactive: [6] 94 % of control | [7] 102 % of control

CN(C)C(=S)SC1OC(CO)C(OC2OC(CO)C(O)C(O)C2O)C(O)C1O (stereo not drawn)
inactive: [1] 93 % of control | [2] 90 % of control | [3] 88 % of control

CC(=O)C(=O)c1ccc(O)cc1O
inactive: dose: 10.0 mg/kg/injection, schedule: Q01DX009 (ip), vehicle: saline with Tween-80 96 % of control | dose: 20.0 mg/kg/injection, schedule: Q01DX009 (ip), vehicle: saline with Tween-80 103 % of control | dose: 40.0 mg/kg/injection, schedule: Q01DX009 (ip), vehicle: saline with Tween-80 107 % of control

Cc1[nH]c(=O)[nH]c(=O)c1C(=O)O
inactive: [1] 100 % of control | [2] 105 % of control | [3] 99 % of control

C[N+]1=CN(S(=O)(=O)C2C=CC=CC=C2)C(C)(C)C1(C)C
inactive: dose: 100.0 mg/kg/injection, schedule: Q04DX003 (ip), vehicle: saline 103 % of control | dose: 200.0 mg/kg/injection, schedule: Q04DX003 (ip), vehicle: saline 103 % of control | dose: 400.0 mg/kg/injection, schedule: Q04DX003 (ip), vehicle: saline 99 % of control
